How the values were obtained:
Assay type in all cases: biochemical
human granzyme A = molecular target: T1, human granzyme A (Homo sapiens, UniProt P12544); assay: Inactivation rate of human granzyme A, incubation method; conditions: Table I; 0.1M Hepes, 0.01M CaCl2 pH 7.5, 25° C., 7.6% DMSO, substrate Z--Arg--SBzl
T1 sequence (P12544 29-262): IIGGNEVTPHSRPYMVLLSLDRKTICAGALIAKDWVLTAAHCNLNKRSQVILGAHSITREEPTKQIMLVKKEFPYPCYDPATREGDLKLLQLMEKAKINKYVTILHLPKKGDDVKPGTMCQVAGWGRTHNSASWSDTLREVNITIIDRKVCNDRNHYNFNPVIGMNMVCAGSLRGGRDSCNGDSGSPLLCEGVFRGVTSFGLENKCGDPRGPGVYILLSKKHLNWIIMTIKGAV
In short: (§1)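 Inhibitor in DMSO added to enzyme (0.01-2.3 μM) in 0.1 M HEPES, 0.01 M CaCl2, pH 7.5, 25° C (DMSO 7.6% for granzyme A, 7.1% for granzyme K); residual activity on Z-Arg-SBzl with DTNB read at intervals. Kobs from ln vt/vo vs time plots.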

rat granzyme A = assay: Inactivation rate of rat granzyme A, incubation method; conditions: Table I; 0.1M Hepes, 0.01M CaCl2 pH 7.5, 25° C., 7.6% DMSO, substrate Z--Arg--SBzl
Method: Inactivation rates of serine proteases by aryl diesters of peptidyl derivatives of α-aminoalkylphosphonates were measured by the incubation method. An aliquot of inhibitor (25 or 50 μl) in Me2 SO was added to a buffered enzyme solution (0.01-2.3 μM) to initiate the inactivation. Aliquots (50 μl) were withdrawn at various intervals and the residual enzymatic activity was measured. Me2 SO concentration in the reaction mixture was 8-12% (v/v). A 0.1 M HEPES, 0.01 M CaCl2, pH 7.5 buffer was utilized for trypsin and trypsin-like enzymes. A 0.1 M HEPES, 0.5 M NaCl, pH 7.5, was utilized for the other serine proteases. Peptide thioesters or peptide nitroanilides with the appropriate sequences were used as substrates for various serine proteases. All peptide thioesters hydrolysis rates were measured with the assay mixture containing 4,4'-dithiodipyridine {ε324 =19800 M^-1 cm^-1; Grasetti & Murray, Arch. Biochem. Biophys. 1967, 119, 41-48}. Peptide 4-nitroanilide hydrolysis was measured at 410 nm {ε410 =8800 M^-1 cm^-1; Erlanger et al., Arch. Biochem. Biophys. 1961, 95, 271-278}. First order inactivation rate constants (Kobs) were obtained from plots of In vt /vo vs time, and the correlation coefficients were greater then 0.98.
^a Inhibition constants were measured in 0.1M Hepes, 0.01M CaCl2
pH 7.5 for trypsin, granzymes A, and K, and in 0.1M Hepes, 10% glycerol,
10 mM heparin, pH 7.5 for mast cell tryptase, and at 25° C. The
reaction mixtures contained 2% DMSO for trypsin, 7.6% for granzyme A, and
7.1% for granzyme K and tryptase. The substrate was Z--Arg--SBzl for
granzymes and trypsin, and Z--Arg--SBzl or Z--Lys--SBzl for tryptase in
the presence of DTNB. The inhibitor # concentration ranged from 0.001 to
^b NI, no inhibition after 25 min of incubation with enzyme.

rat granzyme K = molecular target: T2, rat granzyme K (Rattus norvegicus, UniProt P49864); assay: Inactivation rate of rat granzyme K, incubation method; conditions: Table I; 0.1M Hepes, 0.01M CaCl2 pH 7.5, 25° C., 7.1% DMSO, substrate Z--Arg--SBzl; NI = no inhibition after 25 min of incubation
T2 sequence (P49864 26-258): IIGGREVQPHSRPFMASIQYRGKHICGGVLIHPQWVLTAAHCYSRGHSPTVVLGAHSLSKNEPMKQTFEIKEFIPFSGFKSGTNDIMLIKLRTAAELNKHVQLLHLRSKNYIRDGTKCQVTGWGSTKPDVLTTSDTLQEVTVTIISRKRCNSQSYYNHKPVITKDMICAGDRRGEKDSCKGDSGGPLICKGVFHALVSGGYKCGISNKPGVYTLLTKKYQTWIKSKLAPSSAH
In short: as §1

mast cell tryptase = mast cell tryptase (Homo sapiens, UniProt Q15661); assay: Inactivation rate of mast cell tryptase, incubation method; conditions: for kobsd /[I] mast cell tryptase: 0.1M Hepes, 10% glycerol, 10 mM heparin, pH 7.5, 25° C., 7.1% DMSO, NI = no inhibition after 25 min of incubation; for kobs /[I] mast cell tryptase: 0.07 μM tryptase, 20-66 μM inhibitor, Hepes pH 7.5, heparin, 9% glycerol, 8% DMSO, 25° C., NI = no inhibition
Chain of mast cell tryptase (Q15661 31-275): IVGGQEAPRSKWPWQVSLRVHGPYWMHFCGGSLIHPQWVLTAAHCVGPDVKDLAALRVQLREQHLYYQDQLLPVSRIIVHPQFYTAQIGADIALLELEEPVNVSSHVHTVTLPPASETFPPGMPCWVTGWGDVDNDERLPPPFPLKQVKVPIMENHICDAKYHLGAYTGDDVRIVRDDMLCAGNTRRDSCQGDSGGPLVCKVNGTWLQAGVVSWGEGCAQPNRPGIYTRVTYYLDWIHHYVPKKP
In short: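 Incubation method at 25 °C: 0.07 μM tryptase with 20–66 μM inhibitor in Hepes pH 7.5 containing heparin, glycerol and DMSO. Aliquots were withdrawn at intervals for residual activity on Z-Arg-SBzl or Z-Lys-SBzl with DTNB. Pseudo-first-order kobs came from ln(vt/v0) versus time.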

bovine trypsin = molecular target: T3, bovine trypsin (Bos taurus, UniProt P00760); assay: Inactivation rate of bovine trypsin, incubation method; conditions: for kobsd /[I] bovine trypsin: Table I, 0.1M Hepes, 0.01M CaCl2 pH 7.5, 25° C., 2% DMSO, substrate Z--Arg--SBzl, NI = no inhibition after 25 min; for kobs /[I] bovine trypsin: Table II, 0.13 μM trypsin, 0.25-42 μM inhibitor, 80 mM Hepes pH 7.5, 1 mM CaCl2, 8% DMSO, 25° C., NI = no inhibition
T3 sequence (P00760 24-246): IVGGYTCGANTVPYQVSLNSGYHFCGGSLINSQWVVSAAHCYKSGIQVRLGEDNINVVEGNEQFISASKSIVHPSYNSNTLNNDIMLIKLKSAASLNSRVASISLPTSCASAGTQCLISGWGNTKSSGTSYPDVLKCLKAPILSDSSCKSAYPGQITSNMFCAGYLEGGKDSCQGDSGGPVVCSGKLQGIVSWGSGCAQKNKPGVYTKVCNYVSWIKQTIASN
In short: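 Incubation method: trypsin pre-incubated with inhibitor (0.25-42 μM) at 25° C in 80 mM Hepes, 1 mM CaCl2, pH 7.5, 8% DMSO; aliquots withdrawn over time for residual activity on Z-Arg-SBzl thioester with DTNB or 4,4'-dithiodipyridine. Pseudo-first-order kobs from ln vt/vo versus time.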

human thrombin = molecular target: T4, human thrombin (Homo sapiens, UniProt P00734); conditions: Table II; 0.07 μM thrombin, 0.25-42 μM inhibitor, 80 mM Hepes pH 7.5, 428 mM NaCl, 8% DMSO, 25° C.; NI = no inhibition
T4 construct: bovine trypsin, human thrombin
In short: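 Irreversible inactivation followed by incubation method at 25 °C: 0.07 μM thrombin with 0.25–42 μM inhibitor in 80 mM Hepes pH 7.5, 428 mM NaCl, 8% DMSO. Residual activity of withdrawn aliquots measured with thioester or 4-nitroanilide substrates; kobs from pseudo-first-order fits.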

Structure (SMILES)	kobsd /[I] human granzyme A (human granzyme A) [M⁻¹ s⁻¹]	kobsd /[I] rat granzyme A (rat granzyme A) [M⁻¹ s⁻¹]	kobsd /[I] rat granzyme K (rat granzyme K) [M⁻¹ s⁻¹]	kobsd /[I] mast cell tryptase (mast cell tryptase; Table I) [M⁻¹ s⁻¹]	kobs /[I] mast cell tryptase (mast cell tryptase; Table II) [M⁻¹ s⁻¹]	kobsd /[I] bovine trypsin (bovine trypsin) [M⁻¹ s⁻¹]	kobs /[I] bovine trypsin (bovine trypsin)	kobs /[I] human thrombin (human thrombin)	% Inh mast cell tryptase (mast cell tryptase; Table I, printed in the kobsd/[I] column) [%]	% Inh mast cell tryptase (mast cell tryptase; Table II, printed in the kobs/[I] column) [%]
C[C@H](NC(=O)OCc1ccccc1)C(=O)N[C@@H](C)C(=O)NC(c1ccc(C(=N)N)cc1)P(=O)(Oc1ccccc1)Oc1ccccc1 (some centres unmarked) [Cbz--Ala--Ala-(4-AmPhGly)^P (OPh)2]	820 ± 29	480 ± 27	5	2	2 ± 0	3620 ± 588	3,620 ± 588 M^-1 s^-1	3,030 ± 222 M^-1 s^-1		
N=C(N)c1ccc(C(NC(=O)C(Cc2ccccc2)NC(=O)OCc2ccccc2)P(=O)(Oc2ccccc2)Oc2ccccc2)cc1 (mixture of isomers) [Cbz--Phe-(4-AmPhGly)^P (OPh)2]	14 ± 1	8	13			17 ± 1	17 ± 1 M⁻¹ s⁻¹	20 ± 1 M⁻¹ s⁻¹	5	5
Cl.N=C(N)c1ccc(C(NC(=O)/C=C/c2ccccc2)P(=O)(Oc2ccccc2)Oc2ccccc2)cc1 (stereo not drawn) [trans-Cinnamoyl-(4-AmPhGly)^P (OPh)2, Diphenyl N-(trans-Cinnamoyl)amino(4-amidinophenyl)methanephosphonate Hydrochloride]	400 ± 10	340 ± 18	3	0.3	0.3	110 ± 1	110 ± 1 M⁻¹ s⁻¹	20 ± 1 M⁻¹ s⁻¹		
N=C(N)c1ccc(C(NC(=O)C(CCCCN)NC(=O)OCc2ccccc2)P(=O)(Oc2ccccc2)Oc2ccccc2)cc1 (mixture of isomers) [Cbz--Lys-(4-AmPhGly)^P (OPh)2]	30 ± 1	15 ± 1	1			30 ± 1	30 ± 1 M⁻¹ s⁻¹	88 ± 2 M⁻¹ s⁻¹		
Cl.N=C(N)c1ccc(C(NC(=O)c2ccccc2Oc2ccccc2)P(=O)(Oc2ccccc2)Oc2ccccc2)cc1 (centres unmarked) [2-Phenoxybenzoyl-(4-AmPhGly)^P (OPh)2, Diphenyl N-(2-Phenoxybenzoyl)amino(4-amidinophenyl)methanephosphonate Hydrochloride]	540 ± 3	340 ± 1	1	0.4	0.4	670 ± 53	670 ± 53 M⁻¹ s⁻¹	270 ± 20 M⁻¹ s⁻¹		
Cl.N=C(N)c1ccc(C(NC(=O)C=Cc2ccco2)P(=O)(Oc2ccccc2)Oc2ccccc2)cc1 (centres unmarked) [(2-Furyl)acryloyl-(4-AmPhGly)^P (OPh)2, Diphenyl N-(3-(2-Furyl)acryloyl)amino(4-amidinophenyl)methanephosphonate Hydrochloride]	1740 ± 41	1740 ± 237	32			360 ± 28	360 ± 28 M⁻¹ s⁻¹	15 ± 1 M⁻¹ s⁻¹		
N=C(N)c1ccc(C(NC(=O)Oc2cccc3ccccc23)P(=O)(Oc2ccccc2)Oc2ccccc2)cc1 (centres unmarked) [1-Naphthyloxycarbonyl-(4-AmPhGly)^P (OPh)2]	160 ± 2	90 ± 9	12			30 ± 1	30 ± 1 M⁻¹ s⁻¹	30 ± 2 M⁻¹ s⁻¹		
Cl.N=C(N)c1ccc(C(NC(=O)c2cccc(Oc3ccccc3)c2)P(=O)(Oc2ccccc2)Oc2ccccc2)cc1 (centres unmarked) [3-Phenoxybenzoyl-(4-AmPhGly)^P (OPh)2, Diphenyl N-(3-Phenoxybenzoyl)amino(4-amidinophenyl)methanephosphonate Hydrochloride]	340 ± 53	470 ± 14	1			50 ± 2	50 ± 2 M⁻¹ s⁻¹	200 ± 8 M⁻¹ s⁻¹		

Source: patent US5952307A, “Basic α-aminoalkylphosphonate derivatives” (priority 1997, dated 1999)
